# Data as given in US6492334B1, “Tri-compound analgesic for treating inflammation and pain” (priority 1999, dated 2002).
# How the values were obtained:
# diagnosed torn muscle = experiment: Treatment of a subject with diagnosed torn muscle; type: in vivo, human; conditions: person; for side effect of the prescriptions: NAPROSYN and FLEXERIL prescribed together; for relief by the third day: NAPROSYN and FLEXERIL prescribed together with bed rest, ice packs, heat
# Description: The seventh subject was a person with a diagnosed torn muscle. Emergency Room treatment prescribed NAPROSYN (the trademark name for the drug naproxen sodium) an NSAID, and FLEXERIL(the trademark name for the drug cyclobenzaprene) a muscle relaxant. Also prescribed was bed rest and ice packs for the next 2 to 3 days. Heat was to be used by the second day to relieve spasm. […] This subject was given a protocol of 5 gram of ACI per dose, not the 3 gram ACI per dose as in the previous examples. This protocol was to be taken every hours 4 times per day.
# In all examples mentioned there was no compounding of any pills and no placebos were given.
# arthritis = conditions: as reported by the American Rheumatism Association; cited from earlier work
SMILES,side effect of the prescriptions (diagnosed torn muscle),relief by the third day (diagnosed torn muscle),effect on arthritis compared with placebo (arthritis)
"CN(C)CCC=C1c2ccccc2C=Cc2ccccc21 [FLEXERIL, cyclobenzaprene]",made them drowsy,no relief,
"COc1ccc2c(c1)c(CC(=O)O)c(C)n2C(=O)c1ccc(Cl)cc1 [INDOCIN, indomethacin]",,,no more effect on arthritis than a placebo
"COc1ccc2cc([C@H](C)C(=O)O)ccc2c1 [NAPROSYN, naproxen sodium]",made them drowsy,no relief,
